From patent US20070053934A1, “Polyvalent multimeric composition containing active polypeptides, pharmaceutical compositions and methods of using the same” (priority 2005, published 2007)
Where a SMILES comes first, the peptide text is derived from it. Bridges are numbered along the chain shown (N, C = ends). Roman numbers before positions name the chains, in order. Where no end group is shown, it is not given here. Side-chain parts run from the residue outwards. [ ]: non-standard residue; d: D form. βAla = NCCC(=O)O

Experiments:
fresh sheep erythrocytes [1] = type: cell-based; details: pH 7.2
Protocol: Hemolytic activity of model peptides was assessed on fresh sheep erythrocytes (Fitzgerald Inc., Concord, Mass.). Peptide concentrations yielding 50% hemolysis were used as hemolytic dose (HD50) determined from dose-response curves (Oren, Z., and Y. Shai. 1997. Selective lysis of bacteria but not mammalian cells by diastereomers of melittin: Structure-function study. Biochem. 36:1826-1835). […] The resulting supernatant was diluted by a factor of 40 in distilled water. The absorbances of the supernatant at λ=540 nm (OD540) were measured in the UV Spectrophotometer. Zero hemolysis and 100% hemolysis controls were obtained by incubating the cells with buffer and 1% Triton-X, respectively. Hemolytic index (HI) was defined as HI=HD50/IC50.

S. aureus (ATCC BAA-44) = details: ATCC BAA-44, 18 h
E. Coli (D31) [2] = details: read-out: IC50 E. coli; 50% inhibition of growth, 18 h; mean of three experiments
S Aureus (ATCC BAA-44) = details: mean of three experiments
[3] = system: B. anthracis (Sterne 34F2); details: mean of three experiments
E. Coli (D31) [4] = system: E. Coli (D31)
fresh sheep erythrocytes [5] = experiment: Hemolysis assay HD50 (Examples 1B and 2); type: cell-based; details: red cells of sheep
Protocol: Stock solutions of samples were prepared by the same procedure as in antibacterial assays. Hemolytic activity of monomeric peptides and multivalent ones were assessed on fresh sheep erythrocytes (Fitzgerald, Inc., MA) in 35 mM PBS buffer, 150 mM NaCl, pH 7.0. Peptide concentrations corresponding to 50% hemolysis were used as hemolytic dose (HD50) determined from dose-response curve (National Committee for Clinical Laboratory Standards. 2004, Methods for dilution antimicrobial susceptibility tests for bacteria that grow aerobically; sixth edition, approved standard M100-S14. National Committee for Clinical Laboratory Standards. Wayne, Pa.). Aliquots of cell suspension were mixed in eppendorf tubes with varying volumes of stocks and buffer for a total volume of 1 mL. Solutions containing same volume of DMSO without samples were used as control. These tubes were incubated at 37° C. for 1 hr, and then spun down at 3,000 rpm for 5 mins. The resulting supernatant was diluted by a factor of 40 in distilled water. The absorbances of the dilutions at 540 nm were measured in the Genesys 5 Spectrophotometer (Thermo Spectronic, Inc., NY). Zero hemolysis and 100% hemolysis controls were obtained by incubating the cells with buffer and 20% Tween, respectively. Hemolytic index (HI) was defined as HI=HD50/IC50. […]

HIV-1 BaL = experiment: HIV inhibition assay, p24 readout; details: IL-2 stimulated human PBMCs, p24 in culture supernatant
[6] = system: HIV-1 attachment to and infection of H9 cells; experiment: Viral attachment assay; type: cell-based; details: for cell-associated virus (HIV-1 attachment to target cells): H9 cells, cell-associated p24 after virus exposure
Protocol: FIG. 8. Effect of gp-340 or N-SRCR on HIV-1 attachment and infection of cells. The H9 cells were treated with increasing concentrations of gp-340 (A and B) or N-SRCR (C) before and during HIV-1 exposure. After 4 hours, the cells were extensively washed of virus and either treated with or without trypsin at room temperature for 10 min and lysed for total cell-associated p24 measurement or re-fed with fresh medium to continue culture for 4 days to determine infection (data only for gp-340 shown). The values were average of triplicate wells and bars represent standard errors.
0.5×10^6 H9 cells were pre-incubated with purified gp-340 ranging from 2 to 10 μg/ml, or N-SRCR at 0.5 μg/ml at 37° C. for 60 min before viral exposure at 50 ng/ml p24 at 37° C. for 3 hours. The exposed cells were washed repeatedly to remove unbound virus, either lysed for cell-associated viral p24 measurement, treated with trypsin for 5 min before lysis, or refed with culture medium and maintained in culture for an additional 4 days. Culture medium was collected, cleared of cellular debris, lysed and viral p24 was measured.

HIV-1 NL4-3 = experiment: HIV inhibition assay, p24 readout; details: H9 cells, p24 in culture supernatant
[7] = system: HIV-1 gp120MN V3 peptide P6283; details: Ca++-dependent, ELISA
HIV-1 IIIB = experiment: HIV inhibition assay, p24 readout
HIV = experiment: Inhibition of HIV infectivity by gp340-derived peptides; type: cell-based; details: peptide concentrations up to 10 ug/ml
gp120 = gp120 (Human immunodeficiency virus type 1 group M subtype B, UniProt P03375); details: read-out: Kd of gp340 binding to gp120; earlier studies of the applicants
[8] = H9 cells, p24 in culture supernatant

## N=C(N)NCCC[C@H](N)C(=O)N[C@@H](Cc1c[nH]c2ccccc12)C(N)=O [RW—NH2] (H-Arg-Trp-NH2)
Fresh sheep erythrocytes [1]
  HD50 Red blood cell: 8900 µM
S. aureus (ATCC BAA-44)
  IC50: 2100 µM
E. Coli (D31) [2]
  IC50: 4300 µM

## RWRWRWRW-NH2 [(RW)4—NH2]
Fresh sheep erythrocytes [1]
  HD50 Red blood cell: 100 µM
S. aureus (ATCC BAA-44)
  IC50: 5.1 µM
E. Coli (D31) [2]
  IC50: 9.6 µM

## CC(=O)N[C@@H](Cc1c[nH]c2ccccc12)C(=O)N[C@@H](CCCNC(=N)N)C(=O)N[C@@H](Cc1c[nH]c2ccccc12)C(=O)N[C@@H](CCCNC(=N)N)C(=O)NCCCC[C@H](NC(=O)[C@H](CCCNC(=N)N)NC(=O)[C@H](Cc1c[nH]c2ccccc12)NC(=O)[C@H](CCCNC(=N)N)NC(=O)[C@H](Cc1c[nH]c2ccccc12)NC(C)=O)C(=O)NCCCC[C@H](NC(=O)[C@H](CCCCNC(=O)[C@H](CCCNC(=N)N)NC(=O)[C@H](Cc1c[nH]c2ccccc12)NC(=O)[C@H](CCCNC(=N)N)NC(=O)[C@H](Cc1c[nH]c2ccccc12)NC(C)=O)NC(=O)[C@H](CCCNC(=N)N)NC(=O)[C@H](Cc1c[nH]c2ccccc12)NC(=O)[C@H](CCCNC(=N)N)NC(=O)[C@H](Cc1c[nH]c2ccccc12)NC(C)=O)C(=O)NCCC(N)=O [(Ac—WRWR)4-lys2-Lys-Beta-Ala-NH2] (I: Ac-WRWRK([Arg-Trp-Arg-Trp-Ac])K[βAla]-NH2 / II: Ac-WRWRK([Arg-Trp-Arg-Trp-Ac]); amide I:6-II:C)
S Aureus (ATCC BAA-44)
  Antimicrobial activity IC50: 12.5 µg/mL
[3]
  Antimicrobial activity IC50: 15.5 µg/mL
E. Coli (D31) [4]
  Antimicrobial activity IC50: 9.5 µg/mL
Fresh sheep erythrocytes [5]
  Hemolytic activity HD50: 137 µg/mL

## N-SRCR: recombinant N-terminal gp340 fragment: first SRCR domain and half of first SID, with His-6 and HSV gD tags, 35 kDa
HIV-1 BaL
  estimated ID90 for BaL: 1.1 µg/mL
[6]
  cell-associated virus (HIV-1 attachment to target cells): did not effect viral attachment
H9 cells
  concentration not toxic to H9 cells: up to 10 μg/ml
HIV-1 gp120; gp120 captured with antibody D7324, ELISA
  binding to immobilized gp120: shown to bind immobilized gp120
HIV-1 gp120; sCD4 pre-binding, detected by Ab-1527
  binding to gp120 upon sCD4 treatment of gp120: significantly increased
HIV-1 NL4-3
  estimated ID90 for NL4-3: 1.5 µg/mL
[7]
  binding to the peptide P6283: comparable to binding of gp-340
HIV-1 IIIB; [8]
  ID75 for IIIB: 2 µg/mL
  ID90 for IIIB: not achieved

## RWRWRW-NH2 [(RW)3—NH2]
Fresh sheep erythrocytes [1]
  HD50 Red blood cell: 210 µM
S. aureus (ATCC BAA-44)
  IC50: 8 µM
E. Coli (D31) [2]
  IC50: 16 µM

## QGRVEVLYRGSWGEVC [16 mer]
HIV
  inhibition of HIV infectivity (anti-HIV activity): only modest inhibition of HIV infectivity

## gp340: 340 kDa salivary agglutinin glycoprotein of the SRCR superfamily; recombinant or purified from saliva
[6]; H9 cells cultured 4 days after exposure, p24
  viral replication in the treated cells: significantly inhibited
[6]
  cell-associated virus (HIV-1 attachment to target cells): not affected
gp120
  Kd: 0.0058 µM
HIV-1 IIIB; culture supernatant of transfected 293 cells, compared with SAG from saliva
  blocking HIV-1 infection by expressed full length gp340: as active in blocking HIV-1 infection as SAG purified from human saliva

## N=C(N)NCCC[C@H](NC(=O)[C@H](Cc1c[nH]c2ccccc12)NC(=O)[C@H](CCCNC(=N)N)NC(=O)[C@H](Cc1c[nH]c2ccccc12)NC(=O)[C@H](CCCNC(=N)N)NC(=O)[C@H](Cc1c[nH]c2ccccc12)NC(=O)[C@H](CCCNC(=N)N)NC(=O)[C@H](Cc1c[nH]c2ccccc12)NC(=O)[C@@H](N)CCCNC(=N)N)C(=O)N[C@@H](Cc1c[nH]c2ccccc12)C(N)=O [(RW)5—NH2]
Fresh sheep erythrocytes [1]
  HD50 Red blood cell: 76 µM
S. aureus (ATCC BAA-44)
  IC50: 3.6 µM
E. Coli (D31) [2]
  IC50: 6.2 µM

## GRVEYLXBGSW (GRVEVLYRGSW) [11 mer]
HIV
  inhibition of HIV infectivity (anti-HIV activity): low, but measurable anti-HIV activity

## N=C(N)NCCC[C@H](NC(=O)[C@H](Cc1c[nH]c2ccccc12)NC(=O)[C@@H](N)CCCNC(=N)N)C(=O)N[C@@H](Cc1c[nH]c2ccccc12)C(N)=O [(RW)2—NH2] (H-RWRW-NH2)
Fresh sheep erythrocytes [1]
  HD50 Red blood cell: 3700 µM
S. aureus (ATCC BAA-44)
  IC50: 210 µM
E. Coli (D31) [2]
  IC50: 730 µM
